In brackets after ≈: the same amount, converted by molar mass. Activity calls are given as the source filed them. The calls are words filed in the database; no cut-off is given here.
Columns and labels:
Spermatozoa = experiment: Spermicidal activity against human spermatozoa at 10 mg/ml by modified sander-cramer assay; type: functional
Trichomonas vaginalis [1] = experiment: Antimicrobial activity against clinical isolate of Trichomonas vaginalis; type: functional
Trichomonas vaginalis [2] = experiment: Antimicrobial activity against Trichomonas vaginalis ATCC 25258; type: functional
HeLa = experiment: Cytotoxicity against human HeLa cells by MTT assay; type: cell-based
[3] = Antimicrobial activity against Lactobacillus jensenii

| SMILES | Activity (Spermatozoa) | MIC (Trichomonas vaginalis [1]) | MIC (Trichomonas vaginalis [2]) | EC50 (HeLa) | EC50 [3] |
| --- | --- | --- | --- | --- | --- |
| C=C[C@H]1CN(CCCC)CC[C@H]1CCC(=O)c1ccnc2ccccc12 | inactive | – | – | – | – |
| C=C[C@H]1CNCC[C@H]1CCC(=O)c1ccnc2ccccc12 [CINCHOTOXIN] | – | inactive | inactive | > 1000 mg/L | 449 mg/L (≈ 1530 µM) |
| C=C[C@H]1CN(CC)CC[C@H]1CC(=C)C(=O)c1ccnc2ccccc12.O=C(O)C(O)C(O)C(=O)O | – | 12.5 mg/L | 50 mg/L | 133 mg/L | 685 mg/L |
| C=C[C@H]1CN(CC(C)C)CC[C@H]1CCC(=O)c1ccnc2ccccc12 | inactive | – | – | – | – |
| C=C[C@H]1CN(CC)CC[C@H]1CCC(=O)c1ccnc2ccccc12 | inactive | – | – | – | – |
| C=C[C@H]1CN2CC[C@H]1C[C@@H]2[C@@H](O)c1ccnc2ccccc12 [CINCHONINE] | – | inactive | inactive | 697 mg/L (≈ 2370 µM) | 428 mg/L (≈ 1450 µM) |
| CCCCCCCCCc1ccc(OCCOCCOCCOCCOCCOCCOCCOCCOCCO)cc1 [NONOXYNOL 9] | – | 37.5 mg/L (≈ 60.8 µM) | 37.5 mg/L (≈ 60.8 µM) | 33.2 mg/L (≈ 53.8 µM) | 32.5 mg/L (≈ 52.7 µM) |
| C=C[C@H]1CN(CCCCC)CC[C@H]1CC(=C)C(=O)c1ccnc2ccccc12.O=C(O)C(O)C(O)C(=O)O | – | 12.5 mg/L | 25 mg/L | 104 mg/L | 130 mg/L |
| C=C[C@H]1CN(CCCCC)CC[C@H]1CCC(=O)c1ccnc2ccccc12.O=C(O)C(O)C(O)C(=O)O | – | 1.5 mg/L | 3.12 mg/L | 19.1 mg/L | 76.3 mg/L |
| C=C[C@H]1CN(CCCC)CC[C@H]1CC(=C)C(=O)c1ccnc2ccccc12.O=C(O)C(O)C(O)C(=O)O | – | 3.12 mg/L | 50 mg/L | 138 mg/L | 321 mg/L |
| Cc1ncc([N+](=O)[O-])n1CCO [METRONIDAZOLE] | inactive | 2 mg/L (≈ 11.7 µM) | 62.5 mg/L (≈ 365 µM) | > 1000 mg/L | > 1000 mg/L |
| C=C[C@H]1CN(CCC)CC[C@H]1CCC(=O)c1ccnc2ccccc12.O=C(O)C(O)C(O)C(=O)O | – | 25 mg/L | 100 mg/L | 276 mg/L | 526 mg/L |
| C=C[C@H]1CN(CCCCCC)CC[C@H]1CCC(=O)c1ccnc2ccccc12 | inactive | – | – | – | – |
| C=C[C@H]1CN(CCCCCCCC)CC[C@H]1CCC(=O)c1ccnc2ccccc12 | inactive | – | – | – | – |

Reference: ChEMBL document CHEMBL2069192, “Synthesis of 3-(1-alkyl/aminoalkyl-3-vinyl-piperidin-4-yl)-1-(quinolin-4-yl)-propan-1-ones and their 2-methylene derivatives as potential spermicidal and microbicidal agents” (Bioorg Med Chem Lett, 2012)
